{"source": "patent US8735374B2", "about": "“Oral mucoadhesive dosage form” (Intelgenx Corp., priority 2009, dated 2014)", "origin": "cited, not measured here", "conditions": "oral administration; first pass hepatic metabolism, high lipid solubility", "note": "Values joined by “and” are separate entries in the source; they are usually repeats but may differ in a detail not shown here. Identical values can stand only once."}
{"smiles": "CCCCCc1cc(O)c2c(c1)OC(C)(C)[C@@H]1CCC(C)=C[C@@H]21", "note": "[THC, Δ^9-tetrahydrocannabinol]", "values": [{"measurement": "portion of an administered dose that reaches systemic circulation", "value": "10 to 20% and 10-20%"}]}
